Assay results: ChEMBL document CHEMBL1145356, “Discovery of new C3aR ligands. Part 1: arginine derivatives” (Bioorg Med Chem Lett, 2007)

Experiments:
[1] = target: T1, C3a anaphylatoxin chemotactic receptor (Homo sapiens, UniProt Q16581); test: Inhibition of human C3a receptor expressed on HMC1 cells by SPA assay; type: cell-based
T1 sequence (Q16581 whole entry): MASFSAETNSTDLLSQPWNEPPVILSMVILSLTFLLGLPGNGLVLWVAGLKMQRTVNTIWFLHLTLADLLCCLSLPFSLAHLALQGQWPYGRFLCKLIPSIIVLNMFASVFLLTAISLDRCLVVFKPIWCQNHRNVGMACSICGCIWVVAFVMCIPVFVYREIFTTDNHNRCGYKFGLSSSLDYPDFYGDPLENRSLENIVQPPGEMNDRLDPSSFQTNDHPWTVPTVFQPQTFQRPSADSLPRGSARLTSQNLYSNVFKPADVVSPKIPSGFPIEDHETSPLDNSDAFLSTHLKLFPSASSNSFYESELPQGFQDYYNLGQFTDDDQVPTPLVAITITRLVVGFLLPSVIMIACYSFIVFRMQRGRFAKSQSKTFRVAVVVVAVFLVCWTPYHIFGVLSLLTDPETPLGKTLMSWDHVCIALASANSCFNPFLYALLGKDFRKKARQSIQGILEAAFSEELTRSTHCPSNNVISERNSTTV

[2] = target: T1, C3a anaphylatoxin chemotactic receptor; test: Antagonist activity at C3aR; type: functional
[3] = target: T1, C3a anaphylatoxin chemotactic receptor; test: Agonist activity at C3a receptor expressed on HMC1 cells; type: functional, cell-based
[4] = Peak plasma concentration in ovalbumin-induced BALB/c mouse model of airway inflammation at 3 mg/ml aerosol after 30 mins; type: ADME, organism-based; details: inhaled or intranasal
[5] = Peak plasma concentration in ovalbumin-induced BALB/c mouse model of airway inflammation at 30 mg/kg, ip after 30 mins; type: ADME, organism-based; design: dose 30 mg/kg, route intraperitoneal
[6] = target: CYP2D6 (Homo sapiens, UniProt P10635); test: Inhibition of CYP2D6 at 50 uM; type: ADME
CYP2D6, sequence (P10635 whole entry): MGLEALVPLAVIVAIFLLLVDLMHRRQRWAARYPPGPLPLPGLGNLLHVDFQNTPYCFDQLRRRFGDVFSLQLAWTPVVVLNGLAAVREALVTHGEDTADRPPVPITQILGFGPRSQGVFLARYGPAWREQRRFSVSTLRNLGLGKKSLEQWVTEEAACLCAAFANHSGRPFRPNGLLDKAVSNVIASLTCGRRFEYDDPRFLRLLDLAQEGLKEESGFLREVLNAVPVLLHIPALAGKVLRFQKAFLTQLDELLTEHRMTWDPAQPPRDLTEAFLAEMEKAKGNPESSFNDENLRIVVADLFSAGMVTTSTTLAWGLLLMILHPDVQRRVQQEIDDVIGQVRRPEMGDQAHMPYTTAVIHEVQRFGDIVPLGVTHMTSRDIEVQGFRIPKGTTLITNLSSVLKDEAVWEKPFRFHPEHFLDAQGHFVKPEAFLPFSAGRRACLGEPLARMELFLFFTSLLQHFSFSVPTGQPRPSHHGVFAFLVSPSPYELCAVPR

[7] = target: CYP3A4 (Homo sapiens, UniProt P08684); test: Inhibition of CYP3A4 at 50 uM; type: ADME
CYP3A4, sequence (P08684 whole entry): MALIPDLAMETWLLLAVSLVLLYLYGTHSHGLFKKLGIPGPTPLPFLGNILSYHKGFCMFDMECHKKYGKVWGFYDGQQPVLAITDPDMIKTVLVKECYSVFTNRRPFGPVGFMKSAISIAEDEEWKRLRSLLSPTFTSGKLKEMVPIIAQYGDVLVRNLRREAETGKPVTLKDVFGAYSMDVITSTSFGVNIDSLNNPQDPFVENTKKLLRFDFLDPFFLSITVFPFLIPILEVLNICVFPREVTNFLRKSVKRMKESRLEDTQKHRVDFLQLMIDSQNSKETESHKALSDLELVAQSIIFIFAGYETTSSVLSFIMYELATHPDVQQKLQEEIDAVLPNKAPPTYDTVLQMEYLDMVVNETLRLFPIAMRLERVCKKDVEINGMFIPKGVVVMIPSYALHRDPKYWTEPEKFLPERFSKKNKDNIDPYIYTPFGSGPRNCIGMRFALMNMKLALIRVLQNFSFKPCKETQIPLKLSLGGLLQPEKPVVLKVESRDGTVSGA

[8] = Bioavailability in rats at 1 mg/kg, po; type: ADME, organism-based; details: rat, in vivo
[9] = Permeability from apical to basolateral side in Caco-2 cells; type: ADME, cell-based; details: human, read-out: permeability
[10] = Bioavailability in rats at 1 mg/kg, […]; type: ADME, organism-based; details: rat, in vivo
[11] = Metabolic clearance in rat liver microsomes; type: ADME, Microsome
[12] = Metabolic clearance in rat hepatocytes assessed per 10^6 cells; type: ADME, cell-based, Liver, Hepatocyte

| Compound | IC50 [1] | further results |
| --- | --- | --- |
| N=C(N)NCCC[C@@H](NC(=O)c1ccc(-c2cccc(CO)c2)o1)C(=O)O | 794 nM | – |
| N=C(N)NCCC[C@@H](NC(=O)c1ccc(C(c2cccc(F)c2)c2cccc(F)c2)o1)C(=O)O | 31.6 nM | EC50 [2]: 1260 nM |
| N=C(N)NCCC[C@@H](NC(=O)c1ccc(C(c2ccccc2)c2ccccc2)cc1)C(=O)O | 794 nM | – |
| NC(N)=NCCC[C@@H](NC(=O)c1ccc(-c2ccc(F)c(Cl)c2)o1)C(=O)O | 200 nM | – |
| N=C(N)NCCC[C@@H](NC(=O)c1ccc(-c2cccc(Cl)c2)cc1)C(=O)O | 100000 nM | – |
| NC(N)=NCCC[C@@H](NC(=O)c1cccc(-c2cccc(Cl)c2)c1)C(=O)O | 794 nM | EC50 [2]: 3980 nM |
| N=C(N)NCCC[C@@H](NC(=O)c1ccc(-c2cccc(F)c2)o1)C(=O)O | 316 nM | – |
| NC(N)=NCCC[C@@H](NC(=O)c1ccc(C(c2ccc(Cl)cc2)c2ccc(Cl)cc2)o1)C(=O)O | 158 nM | EC50 [3]: 126 nM |
| NC(N)=NCCC[C@@H](NC(=O)c1ccc(-c2cccc3c2oc2ccccc23)o1)C(=O)O | 3980 nM | – |
| N=C(N)NCCC[C@H](NC(=O)COCC(c1ccccc1)c1ccccc1)C(=O)O | 501 nM | – |
| N=C(N)NCCC[C@H](NC(=O)c1ccc(C(c2ccccc2)c2ccccc2)o1)C(=O)O | – | Cmax [4]: 27 ng/mL; Cmax [5]: 33800 ng/mL; inhibition at 50 µM [6]: 12%; inhibition at 50 µM [7]: 0%; bioavailability [8]: < 1%; Papp A→B [9]: 0.4 ×10⁻⁶ cm/s; bioavailability [10]: < 1%; microsomal CLint [11]: 4 µL/min/mg; hepatocyte CLint [12]: 5 µL/min/1e6 cells |
| Cc1ccc(Cl)cc1-c1ccc(C(=O)N[C@H](CCCN=C(N)N)C(=O)O)o1 | 794 nM | – |
| N=C(N)NCCC[C@@H](NC(=O)c1ccc(-c2cc(Cl)ccc2Cl)o1)C(=O)O | 1580 nM | – |
| N=C(N)NCCC[C@@H](NC(=O)c1ccc(-c2csc3ccccc23)o1)C(=O)O | 316 nM | – |
| N=C(N)NCCC[C@@H](NC(=O)c1ccc(C(c2cccc(Cl)c2)c2cccc(Cl)c2)o1)C(=O)O | 15.8 nM | EC50 [3]: 20 nM |
| N#Cc1cccc(-c2ccc(C(=O)N[C@H](CCCNC(=N)N)C(=O)O)o2)c1 | 200 nM | – |
| NC(N)=NCCC[C@@H](NC(=O)N1CCN(C(c2ccccc2)c2ccccc2)CC1)C(=O)O | 50100 nM | – |
| N=C(N)NCCC[C@@H](NC(=O)c1ccc(-c2cccc(Cl)c2)o1)C(=O)O | 79.4 nM | EC50 [3]: 501 nM |
| COc1cccc(-c2ccc(C(=O)N[C@H](CCCN=C(N)N)C(=O)O)o2)c1 | 316 nM | – |
| Cc1cccc(-c2ccc(C(=O)N[C@H](CCCNC(=N)N)C(=O)O)o2)c1 | 126 nM | – |
| CCOc1cccc(-c2ccc(C(=O)N[C@H](CCCN=C(N)N)C(=O)O)o2)c1 | 200 nM | – |
| N=C(N)NCCC[C@@H](NC(=O)c1ccc(-c2cccc(Cl)c2)s1)C(=O)O | 6310 nM | EC50 [2]: 15800 nM |
